Target: KfoC (Escherichia coli, UniProt Q8L0V4)
Assay: preparative synthesis, HPLC
Type: biochemical
Conditions: acceptor elongated to CS 7-mer

Sequence of KfoC (Q8L0V4 whole entry): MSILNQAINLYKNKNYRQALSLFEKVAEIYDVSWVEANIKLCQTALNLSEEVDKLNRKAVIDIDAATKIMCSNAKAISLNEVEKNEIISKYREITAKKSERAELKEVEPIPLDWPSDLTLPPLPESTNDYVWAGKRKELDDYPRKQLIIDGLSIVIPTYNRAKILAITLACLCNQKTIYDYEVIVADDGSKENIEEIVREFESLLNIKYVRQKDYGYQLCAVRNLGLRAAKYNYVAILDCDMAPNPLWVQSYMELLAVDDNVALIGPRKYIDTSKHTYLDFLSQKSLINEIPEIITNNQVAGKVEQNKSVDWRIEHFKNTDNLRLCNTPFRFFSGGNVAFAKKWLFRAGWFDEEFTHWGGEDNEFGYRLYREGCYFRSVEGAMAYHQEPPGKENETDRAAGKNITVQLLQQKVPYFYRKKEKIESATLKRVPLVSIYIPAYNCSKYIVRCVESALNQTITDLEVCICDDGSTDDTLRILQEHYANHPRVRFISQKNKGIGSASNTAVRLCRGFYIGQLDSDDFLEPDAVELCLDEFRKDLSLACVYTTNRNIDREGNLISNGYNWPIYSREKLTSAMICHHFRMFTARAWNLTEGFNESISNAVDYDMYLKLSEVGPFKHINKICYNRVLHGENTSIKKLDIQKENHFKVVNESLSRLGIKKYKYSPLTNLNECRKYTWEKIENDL

Structure (SMILES): O=C(O)[C@H]1O[C@@H](Oc2ccc([N+](=O)[O-])cc2)[C@H](O)[C@@H](O)[C@@H]1O [4-nitrophenyl-β-D-glucuronide]
- preparative synthesis, HPLC: GlcA-pNP was first elongated to heptasaccharide CS 7-mer by KfoC

From PMC9294993 (ACS chemical biology, 2022)
